Test results as given in the METLIN SMRT retention time set (Domingo-Almenara et al. 2019).

Test: gradient 5% acetonitrile 3 min, to 50% in 2 min, to 85% in 15 min, held 3 min, 100 µL/min
Conditions: column: Zorbax Extend-C18 2.1 x 50 mm; eluents: water / acetonitrile, 0.1% formic acid
Outline: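 Values are retention times taken from adduct peaks that software picked and an analyst inspected. The pure standards were run as mixtures of ~100 molecules on HPLC linked to a quadrupole time-of-flight mass spectrometer, in positive and negative ionization mode. A Zorbax Extend-C18 column (2.1 × 50 mm, 1.8 μm) was used at 100 μL/min with water and acetonitrile, each including 0.1% formic acid.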

Structure (SMILES)	RP-LC retention time [s]
COc1ccc(-c2cn3c(CC(=O)Nc4ccccc4Cl)csc3n2)cc1OC	728
Nc1nc(N)c2nc(-c3cccc(O)c3)c(-c3cccc(O)c3)nc2n1	630
COc1ccc(-c2noc(C3CC(=O)N(c4cc(C)ccc4C)C3)n2)cc1 (centres undefined)	988
CCc1nc(-c2ccc3c(c2)CCN3C(=O)COc2ccccc2)no1	988
Cc1cccc2c1CCN(C(=O)c1ccco1)[C@@H]2C	931
COc1cccc(Cn2c(=O)c3sccc3n(Cc3nc(-c4ccc(C)c(C)c4)no3)c2=O)c1	1200
COc1ccc(C)cc1NC(=O)Cn1nc2c(Oc3cc(C)cc(C)c3)nccn2c1=O	1050
O=C(NCCCn1c(C(F)(F)F)nc2cccnc21)Nc1ccccc1	776
COc1ccc(OC)c(CNC(=O)c2cnc(OC)nc2)c1	700
COCCN1C(=O)c2cccn2CC1CNC(=O)Cn1nc(C(F)(F)F)cc1C (centres undefined)	703
COc1ccc(-c2cc3nn(CC(=O)NC(C)(C)C)c(=O)n3c(C)n2)cc1	842
Cc1nn(C)cc1C(=O)Nc1c(C)n(C)n(-c2ccccc2)c1=O	563
COc1cccc(C2=NC3(CCN(C(C)C)CC3)NC(c3cc(Br)ccc3O)C2)c1 (centres undefined)	647
CN(C)c1ccc(C(=O)Nc2cc(-c3cccs3)no2)cc1	972
COc1cccc(-n2cc(C(=O)OCc3ccncc3)c3ccccc3c2=O)c1	714
CC1=NS(=O)(=O)N(Cc2ccccc2)C=C1C(=O)OCc1ccccc1C	1170
O=C(NCC(O)c1ccc(C(F)(F)F)cc1)C(c1ccccc1)c1ccccc1 (centres undefined)	938
Cc1ccc(N(Cc2nc3nc(C)cc(C)n3n2)C(=O)c2cccs2)cc1	802
CC(C)c1ccc(S(=O)(=O)N2C[C@@H](F)C[C@H]2C(=O)N2CCc3ccccc3C2)cc1	1060
Cc1nn(CC(=O)NCCCN2CCCC2=O)c(=O)c2nc(-c3ccccc3)sc12	668
O=C(Cc1nnc(-c2ccccc2)o1)NCC1CC1	684
Nc1ccccc1C(=O)Nc1ccc(Cl)cc1Cl	1080
CCOc1ccc(S(=O)(=O)N2CCN(c3cnn4c(C)nnc4c3)CC2)cc1	714
COC(=O)c1ccc(-c2nc3cnccn3c2Nc2ccc(C)cc2C)cc1	1010
COc1ccc(-c2noc(CN3N=NC4C(=O)N(c5ccc(F)cc5)C(=O)C43)n2)c(OC)c1 (centres undefined)	1170

Structure (SMILES)	RP-LC retention time [s]
Cc1ccn2cc(-c3ccc(NC(=O)c4ccc(Cl)cc4Cl)cc3)nc2n1	695
COCCC(=O)N1CC2CN(S(=O)(=O)c3ccc(C)cc3)CC(C1)O2	684
COc1cc(-c2oc3cc(O)ccc3c(=O)c2O)ccc1O	687
COc1ccc(-c2nn3c(-c4ccc5ccccc5n4)nnc3s2)cc1	975
COCC(=O)Nc1ccccc1NC(=O)c1ccco1	618
CNC(=O)NCC(c1ccc(F)cc1)c1c[nH]c2ccccc12 (centres undefined)	782
CCn1nc(C)c(CCNC(=O)Nc2ccccc2C(F)(F)F)c1C	672
Cc1noc2nc(C)n(CC(=O)NCc3cccc(Br)c3)c(=O)c12	805
CCn1cc(C)c(C(=O)O)c1CC(=O)NCc1cccnc1	584
COCCCNC(=O)NCc1cccnc1OC	594
O=c1n(Cc2cccc(F)c2)nc2c(S(=O)(=O)N3CCc4ccccc4C3)cccn12	938
CCc1noc(NC(C)=O)c1-c1ccc(OC)c(S(=O)(=O)NCc2ccccc2)c1	766
Cc1cccc(Sc2nccnc2SCC(=O)N2CCN(c3ccccn3)CC2)c1	721
O=C(OCc1nc2ccccc2s1)c1ccc([N+](=O)[O-])o1	848
CCS(=O)(=O)c1nc2ccc(NS(=O)(=O)c3cc(C)cc(C)c3)cc2s1	936
CCCc1nc(-c2c(C)cc(C)nc2NC(=O)COc2ccccc2)no1	946
Cc1nnc(CNC(=O)c2cccc(-n3cnnn3)c2)o1	567
Cc1cccc(OCc2nc(CCN(C)C(=O)Nc3ccccc3C)no2)c1	919
CC(=O)Nc1cccc(-n2cc3c(c2-c2ccccc2Cl)c(=O)n(C)c(=O)n3C)c1	768
COc1ccc(CN(Cc2ccccc2)Cc2cc(=O)n3cc(Cl)ccc3n2)cc1	721
Cc1cccc(CN2CCCN(CC(=O)NC(C)CCc3ccccc3)S2(=O)=O)c1 (centres undefined)	1080
CCS(=O)(=O)Nc1ccc(Nc2c3ccccc3nc3ccccc23)c(OC)c1	649
O=C(CSc1ncn[nH]1)Nc1ccc2c(c1)OCCO2	591
CC(C)CN1C(=O)CCc2cc(NS(=O)(=O)c3cccc(Cl)c3)ccc21	932
CCn1cc(C(=O)NCc2ccccn2)c(S(=O)(=O)N2CCSCC2)n1	647

Other lines, results leading:

RP-LC retention time [s]	Structure (SMILES)
786	O=C(NC1CC1)[C@@H]1C[C@H](Oc2ccccc2)CN1C(=O)Cn1c(=O)oc2ccccc21
752	Cc1oc(C2CCN(C(=O)Nc3ccc(F)cc3)CC2)nc1C(=O)N1CCCC1
572	Cc1cc(OCC(=O)NCc2ccco2)nc(N2CCCCCC2)n1
791	CCc1ccccc1NC(=O)N1CCC2(CC1)NC(=O)c1cc(F)ccc1N2C
896	CCc1nc(-c2csc(S(=O)(=O)N3CCCC(C(=O)Nc4cc(C)on4)C3)c2)no1 (centres undefined)
765	O=C(NCc1ccc2c(c1)OCO2)c1ccc2c(c1)NC(=O)C1CCCCN21 (centres undefined)
804	O=C(Cc1cccs1)Nc1ccc(N2CCN(C3CCCCC3)C2=O)nc1
605	Cc1cnc(C2CC2)n1CCNS(=O)(=O)c1cccc(F)c1
740	COc1ccc(C2Cn3cnc(C(=O)N4CCC(C(=O)Nc5ccc(C)cc5C)CC4)c3CO2)cc1 (centres undefined)
638	CCC(C)NC(=O)C1CCN(c2cnc(N3CCOCC3)nc2)CC1 (centres undefined)
737	CCOc1ccccc1C1NC(=O)N(CC(=O)NC2CCCC2)C2=C1C(=O)OC2 (centres undefined)
992	CCc1nc2cc(N3CCC(C(=O)Nc4cc(C)ccc4OC)CC3)cnc2nc1CC
712	CCC(=O)N1CCCC1COc1ccc(C(=O)N2CCCC2)cc1 (centres undefined)
625	Cc1cc(=O)n(CC(=O)N(C)c2ccccc2)c(N2CCCC2)n1
668	O=C(Cn1cnc2nc(N3CCCC(C(=O)NC4CC4)C3)sc2c1=O)Nc1ccccc1F (centres undefined)
616	O=C(NCc1ccc(N2CCCCC2)nc1)C1CCCCC1
720	Cc1cc2[nH]c(C(=O)Nc3ccc(F)c(C)c3)c(CN3CCOCC3)c2s1
642	CCN(CC)C(=O)c1ccc2c(c1)N(CC(=O)N1CCOCC1)C(=O)CS2
884	COc1ccc(Br)cc1CNC(=O)c1ccc2c(c1)NC(=O)C1CCCCN21 (centres undefined)
773	Cc1nc(-c2ccncc2)nc2c1CCC(=O)N2C1CCCC1

RP-LC retention time [s]	Structure (SMILES)
774	O=C(c1ccsc1)N1CCC(N(C(=O)Cc2ccccc2)C2CCOCC2)CC1
772	O=C(NCCn1c(=O)n(Cc2ccc(F)cc2)c2cccnc21)c1cccs1
619	Cc1oc(C2CCN(C(=O)Cn3cnc4c3c(=O)n(C)c(=O)n4C)CC2)nc1C(=O)N1CCCC1
824	O=C(c1ccccc1Br)N1CCN(c2cc(-c3ccc(F)cc3)[nH]n2)CC1
768	Cc1cc(C)n(-c2ccnc(N3CCC(C(=O)NCC(C)C)CC3)n2)n1
725	CN1c2cc(F)ccc2C(=O)NC12CCN(C(=O)Nc1ccc3c(c1)OCCO3)CC2
767	CCOC(=O)c1sc2cccc(F)c2c1S(=O)(=O)N1CCN(c2ccccn2)CC1
645	O=C(NCCc1cccs1)C1CCCN(C(=O)c2cc(-c3ccccn3)n[nH]2)C1 (centres undefined)
1050	O=C(NCc1cccc(Cl)c1)c1ccc(-c2nc3cccnc3n2C2CCCCC2)cc1
608	O=C(c1ccn2c(-c3cccc(Cl)c3)nnc2c1)N1CCN(c2ccccn2)CC1
764	O=C(Cc1c[nH]c2ccccc12)N1CCC(c2nc(C3CC3)no2)C1 (centres undefined)
958	Cc1nc(C(=O)Nc2ccc(F)c(Cl)c2)c(C)o1
810	Cc1ccc(C2Cn3cnc(C(=O)N4CCC(C(=O)NCc5ccccc5C)CC4)c3CO2)cc1 (centres undefined)
679	O=C(NCc1ccc2c(c1)OCO2)c1ccc2ccnc(N3CCN(C(=O)c4ccco4)CC3)c2c1
740	O=C(C1CC(=O)N(C2CCCCCC2)C1)N1CCCN(c2ccc(=O)n(-c3ccccc3)n2)CC1 (centres undefined)
580	CN(C)c1ccc(CNC(=O)C2CCN(S(=O)(=O)c3ccc4[nH]c(=O)ccc4c3)CC2)cc1
614	CN1CCCc2cc(CCNC(=O)c3c(F)cccc3F)ccc21
786	O=C(Cn1ccn2nc(-c3ccc(F)cc3)c(CO)c2c1=O)Nc1ccc2c(c1)OCCO2
796	CCOC(=O)c1csc(NC(=O)C2CCCN(c3cc(-n4cccn4)ncn3)C2)n1 (centres undefined)
